PubChem BioAssay (NCI)
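Test compounds were applied to cells in 96-well plates for 48 hours at 5 doses. The concentration for 50% growth inhibition is given as GI50. TGI: concentration producing complete growth inhibition.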

Legend:
Experiment in all cases: NCI tumour cell line growth inhibition, 48 h
OVCAR-4 ovarian = tested on: OVCAR-4 ovarian
NCI/ADR-RES ovarian = tested on: NCI/ADR-RES ovarian
HS 578T breast = tested on: HS 578T breast
OVCAR-5 ovarian = tested on: OVCAR-5 ovarian
SN12C renal = tested on: SN12C renal
MCF7 breast = tested on: MCF7 breast
SNB-75 CNS = tested on: SNB-75 CNS
UACC-62 melanoma = tested on: UACC-62 melanoma
SF-295 CNS = tested on: SF-295 CNS
SK-MEL-28 melanoma = tested on: SK-MEL-28 melanoma
NCI-H23 lung = tested on: NCI-H23 lung
K-562 leukemia = tested on: K-562 leukemia
HL-60(TB) leukemia = tested on: HL-60(TB) leukemia
SK-MEL-5 melanoma = tested on: SK-MEL-5 melanoma
786-0 renal = tested on: 786-0 renal
SK-MEL-2 melanoma = tested on: SK-MEL-2 melanoma
MALME-3M melanoma = tested on: MALME-3M melanoma
PC-3 prostate = tested on: PC-3 prostate
A498 renal = tested on: A498 renal
UACC-257 melanoma = tested on: UACC-257 melanoma
CCRF-CEM leukemia = tested on: CCRF-CEM leukemia
SW-620 colon = tested on: SW-620 colon
MDA-MB-231 breast = tested on: MDA-MB-231 breast
OVCAR-3 ovarian = tested on: OVCAR-3 ovarian
HCC-2998 colon = tested on: HCC-2998 colon
SNB-19 CNS = tested on: SNB-19 CNS
ACHN renal = tested on: ACHN renal
COLO 205 colon = tested on: COLO 205 colon
SK-OV-3 ovarian = tested on: SK-OV-3 ovarian
CAKI-1 renal = tested on: CAKI-1 renal
BT-549 breast = tested on: BT-549 breast
M14 melanoma = tested on: M14 melanoma
EKVX NSCLC = tested on: EKVX NSCLC
T-47D breast = tested on: T-47D breast
HOP-62 NSCLC = tested on: HOP-62 NSCLC
MOLT-4 leukemia = tested on: MOLT-4 leukemia
SF-539 CNS = tested on: SF-539 CNS
NCI-H522 lung = tested on: NCI-H522 lung
NCI-H226 lung = tested on: NCI-H226 lung
SR leukemia = tested on: SR leukemia
MDA-MB-435 = tested on: MDA-MB-435
HOP-92 NSCLC = tested on: HOP-92 NSCLC
U251 CNS = tested on: U251 CNS
NCI-H460 lung = tested on: NCI-H460 lung
RXF 393 renal = tested on: RXF 393 renal
RPMI-8226 leukemia = tested on: RPMI-8226 leukemia
HT29 colon = tested on: HT29 colon
LOX IMVI melanoma = tested on: LOX IMVI melanoma
SF-268 CNS = tested on: SF-268 CNS
OVCAR-8 ovarian = tested on: OVCAR-8 ovarian
HCT-116 colon = tested on: HCT-116 colon
UO-31 renal = tested on: UO-31 renal
A549 NSCLC = tested on: A549 NSCLC
KM12 colon = tested on: KM12 colon
DU-145 prostate = tested on: DU-145 prostate

With `CC(=O)Oc1ccccc1C(=O)/C=C/c1cccc([N+](=O)[O-])c1` the GI50 (OVCAR-4 ovarian) was 5.95 µM, the TGI (OVCAR-4 ovarian) was 23.1 µM and the GI50 (NCI/ADR-RES ovarian) was 3.88 µM. It also gave a TGI (NCI/ADR-RES ovarian) of 18.7 µM, a GI50 (HS 578T breast) of 1.78 µM and a TGI (HS 578T breast) of 8.16 µM. It also gave a GI50 (OVCAR-5 ovarian) of 4.75 µM, a TGI (OVCAR-5 ovarian) of 17.1 µM and a GI50 (SN12C renal) of 2.53 µM. It also gave a TGI (SN12C renal) of 6.79 µM, a GI50 (MCF7 breast) of 1.99 µM and a TGI (MCF7 breast) of 10.6 µM. For the same compound, the GI50 (SNB-75 CNS) was 2.94 µM, the TGI (SNB-75 CNS) was 14.4 µM and the GI50 (UACC-62 melanoma) was 3.29 µM. It also gave a TGI (UACC-62 melanoma) of 12.2 µM, a GI50 (SF-295 CNS) of 1.88 µM and a TGI (SF-295 CNS) of 4.16 µM. It also gave a GI50 (SK-MEL-28 melanoma) of 5.56 µM, a TGI (SK-MEL-28 melanoma) of 21.2 µM and a GI50 (NCI-H23 lung) of 5.09 µM. For the same compound, the TGI (NCI-H23 lung) was 19.6 µM, the GI50 (K-562 leukemia) was 3.14 µM and the TGI (K-562 leukemia) was > 100 µM. It also gave a GI50 (HL-60(TB) leukemia) of 3.26 µM, a TGI (HL-60(TB) leukemia) of 9.51 µM and a GI50 (SK-MEL-5 melanoma) of 3.03 µM. For the same compound, the TGI (SK-MEL-5 melanoma) was 9.07 µM, the GI50 (786-0 renal) was 1.83 µM and the TGI (786-0 renal) was 3.6 µM. It also gave a GI50 (SK-MEL-2 melanoma) of 15.1 µM, a TGI (SK-MEL-2 melanoma) of 29.4 µM and a GI50 (MALME-3M melanoma) of 13.6 µM. The TGI (MALME-3M melanoma) was 30.5 µM, the GI50 (PC-3 prostate) was 3.69 µM and the TGI (PC-3 prostate) was 15.3 µM. It also gave a GI50 (A498 renal) of 2.54 µM, a TGI (A498 renal) of 17.6 µM and a GI50 (UACC-257 melanoma) of 6.99 µM. For the same compound, the TGI (UACC-257 melanoma) was 20.8 µM, the GI50 (CCRF-CEM leukemia) was 3.06 µM and the TGI (CCRF-CEM leukemia) was > 100 µM. For the same compound, the GI50 (SW-620 colon) was 1.87 µM, the TGI (SW-620 colon) was 3.9 µM and the GI50 (MDA-MB-231 breast) was 3.48 µM. For the same compound, the TGI (MDA-MB-231 breast) was 13.5 µM, the GI50 (OVCAR-3 ovarian) was 2.6 µM and the TGI (OVCAR-3 ovarian) was 6.17 µM. For the same compound, the GI50 (HCC-2998 colon) was 2.3 µM, the TGI (HCC-2998 colon) was 4.97 µM and the GI50 (SNB-19 CNS) was 4.43 µM. For the same compound, the TGI (SNB-19 CNS) was 15.3 µM, the GI50 (ACHN renal) was 2.29 µM and the TGI (ACHN renal) was 4.99 µM. It also gave a GI50 (COLO 205 colon) of 3.29 µM, a TGI (COLO 205 colon) of 11.5 µM and a GI50 (SK-OV-3 ovarian) of 12.9 µM. The TGI (SK-OV-3 ovarian) was 29.2 µM, the GI50 (CAKI-1 renal) was 2.95 µM and the TGI (CAKI-1 renal) was 14.9 µM. For the same compound, the GI50 (BT-549 breast) was 2.28 µM, the TGI (BT-549 breast) was 5.41 µM and the GI50 (M14 melanoma) was 3.93 µM. For the same compound, the TGI (M14 melanoma) was 14 µM, the GI50 (EKVX NSCLC) was 11.3 µM and the TGI (EKVX NSCLC) was 26.6 µM. The GI50 (T-47D breast) was 10.8 µM, the TGI (T-47D breast) was 44 µM and the GI50 (HOP-62 NSCLC) was 2.5 µM. For the same compound, the TGI (HOP-62 NSCLC) was 7.8 µM, the GI50 (MOLT-4 leukemia) was 3.15 µM and the TGI (MOLT-4 leukemia) was > 100 µM. It also gave a GI50 (SF-539 CNS) of 2.08 µM, a TGI (SF-539 CNS) of 4.93 µM and a GI50 (NCI-H522 lung) of 15.3 µM. For the same compound, the TGI (NCI-H522 lung) was 36.3 µM, the GI50 (NCI-H226 lung) was 10.9 µM and the TGI (NCI-H226 lung) was 30.6 µM. It also gave a GI50 (SR leukemia) of 2.25 µM, a TGI (SR leukemia) of 7.7 µM and a GI50 (MDA-MB-435) of 1.65 µM. The TGI (MDA-MB-435) was 3.55 µM, the GI50 (HOP-92 NSCLC) was 7.91 µM and the TGI (HOP-92 NSCLC) was 22.5 µM. The GI50 (U251 CNS) was 2.02 µM, the TGI (U251 CNS) was 4.78 µM and the GI50 (NCI-H460 lung) was 2.4 µM. It also gave a TGI (NCI-H460 lung) of 9.4 µM, a GI50 (RXF 393 renal) of 1.88 µM and a TGI (RXF 393 renal) of 3.48 µM. The GI50 (RPMI-8226 leukemia) was 3.18 µM, the TGI (RPMI-8226 leukemia) was 16.1 µM and the GI50 (HT29 colon) was 2.36 µM. For the same compound, the TGI (HT29 colon) was 4.92 µM, the GI50 (LOX IMVI melanoma) was 1.56 µM and the TGI (LOX IMVI melanoma) was 3.33 µM. For the same compound, the GI50 (SF-268 CNS) was 3.58 µM, the TGI (SF-268 CNS) was 12.4 µM and the GI50 (OVCAR-8 ovarian) was 3.11 µM. It also gave a TGI (OVCAR-8 ovarian) of 10.4 µM, a GI50 (HCT-116 colon) of 1.66 µM and a TGI (HCT-116 colon) of 3.07 µM. It also gave a GI50 (UO-31 renal) of 1.52 µM, a TGI (UO-31 renal) of 2.96 µM and a GI50 (A549 NSCLC) of 5.48 µM. The TGI (A549 NSCLC) was 23.3 µM, the GI50 (KM12 colon) was 2.4 µM and the TGI (KM12 colon) was 6.23 µM. For the same compound, the GI50 (DU-145 prostate) was 4.37 µM and the TGI (DU-145 prostate) was 15.8 µM.
